These results are taken from patent US11952328B2, “Selective ship inhibitors for treating disease” (THE RESEARCH FOUNDATION FOR THE STATE UNIVERSITY OF NEW YORK, priority 2018, dated 2024).

Structures are written as SMILES.

One assay has as its target T1, SHIP1 (Homo sapiens, UniProt Q92835).
T1 sequence (Q92835 1-1189): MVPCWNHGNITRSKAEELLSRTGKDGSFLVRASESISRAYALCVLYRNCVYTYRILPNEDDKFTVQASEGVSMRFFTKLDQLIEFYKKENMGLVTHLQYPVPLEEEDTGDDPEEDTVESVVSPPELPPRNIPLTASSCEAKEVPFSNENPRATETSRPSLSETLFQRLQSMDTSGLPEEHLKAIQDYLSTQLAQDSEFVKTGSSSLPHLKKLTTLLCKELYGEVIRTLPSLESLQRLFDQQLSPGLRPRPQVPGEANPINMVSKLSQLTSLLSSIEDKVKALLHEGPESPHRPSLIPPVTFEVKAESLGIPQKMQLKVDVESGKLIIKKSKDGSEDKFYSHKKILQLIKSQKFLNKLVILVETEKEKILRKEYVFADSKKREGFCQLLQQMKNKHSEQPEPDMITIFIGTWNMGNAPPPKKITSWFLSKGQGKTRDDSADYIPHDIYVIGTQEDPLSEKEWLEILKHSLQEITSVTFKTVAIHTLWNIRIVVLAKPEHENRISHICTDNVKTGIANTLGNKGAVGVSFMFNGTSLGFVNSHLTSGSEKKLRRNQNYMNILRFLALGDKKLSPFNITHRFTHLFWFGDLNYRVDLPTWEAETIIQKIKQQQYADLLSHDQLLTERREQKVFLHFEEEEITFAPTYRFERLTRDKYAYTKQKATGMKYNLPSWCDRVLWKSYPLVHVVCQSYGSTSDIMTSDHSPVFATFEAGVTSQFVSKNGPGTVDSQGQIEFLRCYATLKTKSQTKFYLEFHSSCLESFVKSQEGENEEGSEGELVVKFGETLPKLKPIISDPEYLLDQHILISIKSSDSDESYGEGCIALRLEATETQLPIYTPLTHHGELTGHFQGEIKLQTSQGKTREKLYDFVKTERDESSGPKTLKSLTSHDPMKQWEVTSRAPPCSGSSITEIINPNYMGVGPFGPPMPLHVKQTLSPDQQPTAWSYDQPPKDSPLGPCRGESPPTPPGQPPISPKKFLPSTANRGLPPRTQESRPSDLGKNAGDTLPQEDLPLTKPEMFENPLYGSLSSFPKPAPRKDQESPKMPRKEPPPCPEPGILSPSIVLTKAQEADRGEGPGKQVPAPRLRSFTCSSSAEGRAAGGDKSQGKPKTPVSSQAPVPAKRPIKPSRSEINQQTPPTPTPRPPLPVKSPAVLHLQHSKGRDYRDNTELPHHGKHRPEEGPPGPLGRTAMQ
The experiment in a line: Malachite Green phosphatase assay. Format: biochemical. Conditions: at 1 nm and 500 μM. From the text: FIGS. 2A-2C show the results of a SHIP1 malachite phosphatase assay. […] This predicts that the sulfonic acid is acting as a phosphate mimic, binding in active site where the 5′-phosphate of PIP3 binds.
K223 is an analog of EDANS, with the corresponding sulfonyl chloride of K223 being used as a donor for developing FRET-based nucleic acid probes and protease substrates. The docking pose of K223 with the model of the SHIP1 active site predicted that the sulfonic acid acts as a phosphate mimic, binding in the active site where the 5′-phosphate of PIP3 binds (FIG. 2B). The origin of the SHIP1 selectivity for K223 was not clear, however the nonpolar naphthalene core rests near K682 in the model of SHIP1, and this residue is a more polar arginine in SHIP2.

A further assay concerns T and NK cells. The experiment in a line: Continuous dosing of patients with selective SHIP1 inhibitor. The note with it: administration periods of 3, 4, 5, 6, 7 or more days. The class given is in vivo. As to the method: An effective dose of selective SHIP1 inhibitor (e.g. K223) is administered by any appropriate means (e.g., orally, intravenously, intraperitoneally) to a patient for administration periods of 3, 4, 5, 6, 7 or more days.

Consider `NCCNc1cccc2cccc(S(=O)(=O)O)c12` [Compound K223, 8-((2-aminoethyl)amino)naphthalene-1-sulfonic acid], for which the “inhibition of SHIP1” value against SHIP1 is “potent and selective inhibition of SHIP1”. Besides, the “responsiveness of activated T and NK cells” value in the assay with T and NK cells was “hyporesponsiveness”.
